Entries after “also recorded” stand apart in the source; their conditions may differ. Read-outs that look alike come from different tables or passages of the source.
Columns and labels:
SARS-CoV-2 [1] = assay: microbe, parasite or virus in culture; conditions: Severe acute respiratory syndrome coronavirus 2, Vero C1008, 24 h
in vitro [2] = conditions: African green monkey
Vero E6 cells [3] = assay: CellTox green cytotoxicity assay on Vero E6 cells; conditions: Vero E6 cells, uninfected plates, 48 h
SARS-CoV-2 [4] = assay: microbe, parasite or virus in culture; assay type: cell-based; conditions: Severe acute respiratory syndrome coronavirus 2; Calu-3 cells, percentage of virus-infected cells, 2 h pretreatment, fixed 48 h post-infection
SARS-CoV-2 [5] = conditions: Vero E6 cells; for inhibition of SARS-CoV-2 in compound dilution series: 4 µM to 0.062 µM, 24 h post-infection
SARS-CoV-2 [6] = assay: in vitro
in vitro [7] = conditions: African green monkey; remark: listed apart in the source
Vero E6 cells [8] = assay: CellTiter-Glo 2.0 cell viability assay on Vero E6 cells; conditions: Vero E6 cells, uninfected plates, 48 h
[9] = CC50 determination on Calu-3 cells (cell viability); conditions: human
[10] = CellTox green cytotoxicity assay on Vero E6 cells; conditions: African green monkey, Vero E6 cells (uninfected)
SARS-CoV-2 [11] = assay: Time-of-addition experiment in Vero E6 cells; assay type: cell-based; conditions: 10 μM
SARS-CoV-2 [12] = assay type: cell-based; conditions: Vero E6 supernatants, dose-dependent, TCID50
[13] = CellTiter-Glo 2.0 cell viability assay on Vero E6 cells; conditions: African green monkey, Vero E6 cells (uninfected)
SARS-CoV-2 [14] = assay: Survival screen: SARS-CoV-2-induced CPE, crystal violet staining; assay type: cell-based; conditions: Vero E6 cells, 1 µM, 2 h pretreatment, MOI 0.01, 48 h
Procedure: Vero E6 cells were seeded in 96-well clear bottom, black wall plates (Costar, Tewksbury, MA, USA), at a density of 20,000 cells per well, one day prior to the experiment. Cells were pretreated for 2 h with 1 µM of each compound contained in the PRB. Remdesivir, K22 [17], and vehicle controls (DMSO) were included in each plate. Subsequently, cells were infected with SARS-CoV-2 at a multiplicity of infection (MOI) of 0.01 in compound-containing medium and incubated at 37 °C in a humidified incubator with 5% CO2. Uninfected (mock) controls were included in each plate. At 48 h post-infection (hpi), cells were fixed with 4% (v/v) neutral buffered formalin (Formafix AG, Hittnau, Switzerland) and stained with crystal violet. Cell viability and cytotoxicity were assessed in parallel, in identically treated, uninfected plates. […]
To identify potential antiviral compounds against SARS-CoV-2 replication, 201 antibacterial, 46 antifungal and 153 antiviral molecules included in the PRB were screened using a conservative concentration of 1 µM. […] Cell survival was scored from 0 (virus-induced cytopathogenic effects; CPE) to 1 (no CPE), upon evaluation of SARS-CoV-2-induced CPE using crystal violet staining (Figure 1A). The cytotoxicity and cell viability were assessed on uninfected plates processed in parallel, to exclude detrimental effects of the compounds on the cells. […]

[15] = Selective Index (SI), CC50 divided by EC50, Vero E6 cells

| Structure (SMILES) | EC90 (SARS-CoV-2 [1]) | inhibition of SARS-CoV-2 in compound dilution series (SARS-CoV-2 [5]) | CC50 at 48 h [9] | CC50 at 48 h [10] | CC50 at 48 h [13] | other results |
| --- | --- | --- | --- | --- | --- | --- |
| CCC(CC)COC(=O)[C@H](C)N[P@](=O)(OC[C@H]1O[C@@](C#N)(c2ccc3c(N)ncnn23)[C@H](O)[C@@H]1O)Oc1ccccc1 [Remdesivir] | 3.39 µM | – | – | – | – | CC50 (in vitro [2]): > 100 µM; influence on cell cytotoxicity in the screen (Vero E6 cells [3]): did not influence cell cytotoxicity; EC50 (SARS-CoV-2 [4]): 0.17 µM; Selective Index (SI), CC50 divided by EC50 (SARS-CoV-2 [5]): > 73.85; selectivity ratio (SARS-CoV-2 [6]; [15]): > 73.8; CC50 (in vitro [7]): > 100 µM; influence on cell viability in the screen (Vero E6 cells [8]): did not influence |
| CCN(CC)CCCC(C)Nc1ccnc2cc(Cl)ccc12 (centres unmarked) [Chloroquine] | 10.4 µM | inhibited SARS-CoV-2 in a dose-dependent manner | – | – | – | – |
| Cc1nc(-c2ccc([C@@H]3N(C)c4ccc(F)cc4C(=O)N3c3ccccc3)s2)cs1 [Retro-2.1] | 1.03 µM | inhibited SARS-CoV-2 in a dose-dependent manner | > 100 µM | > 100 µM | > 100 µM | EC50 (SARS-CoV-2 [4]): 0.08 µM; inhibitory effect on SARS-CoV-2-infected cells, treatment after infection (condition 3) (SARS-CoV-2 [11]; MOI 0.01, 24 h post-infection): most pronounced inhibitory effect; inhibitory effect on SARS-CoV-2-infected cells, treatment during infection (condition 2) (SARS-CoV-2 [11]; MOI 0.01, 24 h post-infection): more pronounced inhibition; inhibitory effect on SARS-CoV-2-infected cells, treatment prior to infection (condition 1) (SARS-CoV-2 [11]; MOI 0.01, 24 h post-infection): only a marginal reduction; reduction in viral titer, treatment after infection (condition 3) (SARS-CoV-2 [11]; supernatant at 24 h post-infection): > 1000 fold; selectivity ratio (SARS-CoV-2 [6]): > 239; reduction in viral titer (SARS-CoV-2 [12]): strongest reduction |
| Cc1ccc(C)c(OCCCCCCN2C[C@H](O)[C@@H](O)[C@H](O)[C@H]2CO)c1 [PBDNJ0803] | – | inhibited SARS-CoV-2 in a dose-dependent manner | > 100 µM | > 100 µM | > 100 µM | – |
| O=C(N/C(=C\c1ccccc1)C(=O)N1CCC(O)(c2ccc(Br)cc2)CC1)c1ccccc1 [K22] | – | – | – | – | – | inhibition of SARS-CoV-2-induced CPE in the survival screen (SARS-CoV-2 [14]): did not show any inhibitory activity; also recorded: did not inhibit SARS-CoV-2 infection |
| CN1CCN(Cc2ccc(-c3cnc4[nH]cc(-c5ccc6[nH]ccc6c5)c4c3)cc2)CC1 [URMC-099-C] | 1.83 µM | inhibited SARS-CoV-2 in a dose-dependent manner | 15.5 µM | 24.9 µM | 14.7 µM | Selective Index (SI), CC50 divided by EC50 (SARS-CoV-2 [5]): 50.69; selectivity ratio (SARS-CoV-2 [6]; [15]): 50.7 |
| CCCCCCCCCN1C[C@H](O)[C@@H](O)[C@H](O)[C@H]1CO [NN-DNJ, N-Nonyl Deoxynojirimycin] | – | inhibited SARS-CoV-2 in a dose-dependent manner | > 100 µM | > 100 µM | > 100 µM | – |
